Experimental data reported in patent US20260078103A1, “ISOQUINOLONES AS PI3K INHIBITORS” (OnKure, Inc., priority 2022, published 2026).
Where two headings read alike, the source gives them in different places.

How the values were obtained:
Format in all cases: cell-based
[1] = system: T47D cells expressing mutant PI3Ka (H1047R); assay: In vitro cell proliferation, T47D cells (CellTiter-Glo); settings: inhibition of proliferation, read-out: Avg T-47D EC50
How it was run: (§1)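 EC50 values derive from a four-parameter logistic fit of luminescence-based (CellTiter-Glo) inhibition, referenced to 0.1% DMSO and 10 uM Alpelisib controls. Compound exposure lasted 72 h at 37 °C.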

[2] = system: SKBR3 cells express WT PI3Ka; assay: In vitro cell proliferation, SKBR3 cells (CellTiter-Glo); settings: inhibition of proliferation
How it was run: as §1

[3] = system: phosphorylation of AKT (pAKT) in T47D cells expressing mutant PI3Ka (H1047R); assay: In vitro cell pAKT (Ser473) HTRF, T47D cells; settings: cellular pAKT, T47D cells, mutant PI3Ka (H1047R), 6 hours, read-out: Avg T-47D IC50
How it was run: (§2)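 T47D cells (RPMI, 10% FBS, 0.2 units/mL insulin) or SKBR3 cells (McCoy's 5a, 10% FBS) were seeded onto 10-point compound dilutions and incubated 6 h at 37 °C. After lysis, pAKT was detected overnight by HTRF (Eu cryptate/d2). IC50 was fitted from % inhibition relative to 0.1% DMSO and 10 uM alpelisib controls.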

[4] = system: phosphorylation of AKT (pAKT) in SKBR3 cells express WT PI3Ka; assay: In vitro cell pAKT (Ser473) HTRF, SKBR3 cells; settings: cellular pAKT
How it was run: as §2

EC50 ([1]; Homo sapiens, T47D, 72 h) | EC50 ([2]; 72 hours) | IC50 ([3]; Homo sapiens, T47D, 6 h) | IC50 ([4]; Homo sapiens, SK-BR-3, 6 h) | EC50 ([1]; 72 hours) | IC50 [3] | IC50 ([4]; 6 hours) | EC50 ([2]; Homo sapiens, SK-BR-3, 72 h) | Compound
1 to 500 nM | 2000 to 15000 nM | 1 to 500 nM | > 15000 nM | – | – | – | – | Cc1cc([C@@H](C)Nc2ccccc2C(=O)O)c2cc(C3C[C@H]3C)n(C)c(=O)c2c1 (single isomer, unassigned) [Example 310]
– | 2000 to 15000 nM | – | – | 1 to 500 nM | 1 to 500 nM | > 15000 nM | – | Cc1cc([C@@H](C)Nc2ccccc2C(=O)O)c2cc(C3C[C@H]3C(C)C)n(C)c(=O)c2c1 (single isomer, unassigned) [Example 312]
– | > 15000 nM | – | – | 1 to 500 nM | 1 to 500 nM | > 15000 nM | – | Cc1cc([C@@H](C)Nc2ccccc2C(=O)O)c2cc(C3C[C@H]3C)n(C)c(=O)c2c1 (single isomer, unassigned) [Example 313]
– | > 15000 nM | – | – | 1 to 500 nM | 1 to 500 nM | > 15000 nM | – | COC[C@@H]1CC1c1cc2c([C@@H](C)Nc3ccccc3C(=O)O)cc(C)cc2c(=O)n1C (single isomer, unassigned) [Example 314]
– | > 15000 nM | – | – | 1 to 500 nM | 1 to 500 nM | > 15000 nM | – | Cc1cc([C@@H](C)Nc2ccccc2C(=O)O)c2cc(C3C[C@H]3C3CC3)n(C)c(=O)c2c1 (single isomer, unassigned) [Example 315]
– | > 15000 nM | – | – | 1 to 500 nM | 1 to 500 nM | > 15000 nM | – | Cc1cc(C(C)Nc2ccccc2C(=O)O)c2c(F)c(C3=CCN(CC(F)(F)F)CC3)n(C)c(=O)c2c1 (single isomer, unassigned) [Example 359]
– | > 15000 nM | – | – | 2000 to 15000 nM | > 15000 nM | > 15000 nM | – | Cc1cc(C(C)Nc2ccccc2C(=O)O)c2c(F)c(C3=CCN(CC(F)(F)F)CC3)n(C)c(=O)c2c1 (single isomer, unassigned) [Example 360]
1 to 500 nM | – | 1 to 500 nM | > 15000 nM | – | – | – | > 15000 nM | Cc1cc([C@@H](C)Nc2ccccc2C(=O)O)c2cc([C@H]3C[C@@H]3C(C)(C)O)n(C)c(=O)c2c1 (single isomer, unassigned) [Example 373]
– | > 15000 nM | – | – | 1 to 500 nM | 1 to 500 nM | > 15000 nM | – | Cc1cc([C@@H](C)Nc2ccccc2C(=O)O)c2cc([C@H]3C[C@@H]3C(C)(C)O)n(C)c(=O)c2c1 (single isomer, unassigned) [Example 374]
1 to 500 nM | – | 1 to 500 nM | > 15000 nM | – | – | – | > 15000 nM | Cc1cc([C@@H](C)Nc2ccccc2C(=O)O)c2cc(C3CC3(F)F)n(C)c(=O)c2c1 (single isomer, unassigned) [Example 384]
– | > 15000 nM | – | – | 1 to 500 nM | 1 to 500 nM | > 15000 nM | – | Cc1cc([C@@H](C)Nc2ccccc2C(=O)O)c2cc(C3CC3(F)F)n(C)c(=O)c2c1 (single isomer, unassigned) [Example 385]
1 to 500 nM | – | 1 to 500 nM | > 15000 nM | – | – | – | > 15000 nM | C[C@@H](Nc1ccccc1C(=O)O)c1cc(F)cc2c(=O)n(C)c(C3C[C@@H]3C(F)(F)F)cc12 (single isomer, unassigned) [Example 451]
– | > 15000 nM | – | – | 1 to 500 nM | 1 to 500 nM | > 15000 nM | – | C[C@@H](Nc1ccccc1C(=O)O)c1cc(F)cc2c(=O)n(C)c(C3C[C@@H]3C(F)(F)F)cc12 (single isomer, unassigned) [Example 452]
– | – | – | > 15000 nM | 500 to 2000 nM | 500 to 2000 nM | – | > 15000 nM | C[C@@H](Nc1ccccc1C(=O)O)c1cc(F)cc2c(=O)n(C)c(C3CC3(F)F)cc12 (single isomer, unassigned) [Example 481]
– | > 15000 nM | – | – | 1 to 500 nM | 1 to 500 nM | > 15000 nM | – | C[C@@H](Nc1ccccc1C(=O)O)c1cc(F)cc2c(=O)n(C)c(C3CC3(F)F)cc12 (single isomer, unassigned) [Example 482]
– | > 15000 nM | – | – | 2000 to 15000 nM | 2000 to 15000 nM | > 15000 nM | – | Cc1cc(C(C)Nc2ccccc2C(=O)O)c2cc(-c3ccc(N4CCOCC4)nc3)n(C)c(=O)c2c1 (single isomer, unassigned) [Example 486]
– | 2000 to 15000 nM | – | – | 1 to 500 nM | 1 to 500 nM | 2000 to 15000 nM | – | Cc1cc(C(C)Nc2ccccc2C(=O)O)c2cc(-c3ccc(N4CCOCC4)nc3)n(C)c(=O)c2c1 (single isomer, unassigned) [Example 487]
1 to 500 nM | – | 1 to 500 nM | > 15000 nM | – | – | – | > 15000 nM | C[C@@H](Nc1ccccc1C(=O)O)c1cc(F)cc2c(=O)n(C)c(C3C[C@@H]3C(F)F)cc12 (single isomer, unassigned) [Example 488]
– | > 15000 nM | – | – | 1 to 500 nM | 1 to 500 nM | > 15000 nM | – | C[C@@H](Nc1ccccc1C(=O)O)c1cc(F)cc2c(=O)n(C)c(C3C[C@@H]3C(F)F)cc12 (single isomer, unassigned) [Example 489]

More lines, now with the values behind:

Compound | EC50 ([1]; Homo sapiens, T47D, 72 h) | EC50 ([2]; 72 hours) | IC50 ([3]; Homo sapiens, T47D, 6 h) | IC50 ([4]; Homo sapiens, SK-BR-3, 6 h) | EC50 ([1]; 72 hours) | IC50 [3] | IC50 ([4]; 6 hours) | EC50 ([2]; Homo sapiens, SK-BR-3, 72 h)
Cc1cc([C@@H](C)Nc2ccccc2C(=O)O)c2cc(C3C[C@H]3C(C)C)n(C)c(=O)c2c1 (single isomer, unassigned) [Example 311] | 1 to 500 nM | > 15000 nM | 1 to 500 nM | > 15000 nM | – | – | – | –
Cc1cc([C@@H](C)Nc2cccc(F)c2C(=O)O)c2cc(C3C[C@H]3C)n(C)c(=O)c2c1 (single isomer, unassigned) [Example 355] | 1 to 500 nM | – | 1 to 500 nM | > 15000 nM | – | – | – | > 15000 nM
Cc1cc([C@@H](C)Nc2cccc(F)c2C(=O)O)c2cc(C3C[C@H]3C)n(C)c(=O)c2c1 (single isomer, unassigned) [Example 356] | – | > 15000 nM | – | – | 1 to 500 nM | 1 to 500 nM | > 15000 nM | –
Cc1cc([C@@H](C)Nc2cccc(F)c2C(=O)O)c2cc(C3CC3(F)F)n(C)c(=O)c2c1 (single isomer, unassigned) [Example 420] | – | – | – | > 15000 nM | 2000 to 15000 nM | 2000 to 15000 nM | – | > 15000 nM
Cc1cc([C@@H](C)Nc2cccc(F)c2C(=O)O)c2cc(C3CC3(F)F)n(C)c(=O)c2c1 (single isomer, unassigned) [Example 421] | – | > 15000 nM | – | – | 500 to 2000 nM | 1 to 500 nM | > 15000 nM | –
C[C@@H](Nc1cccc(F)c1C(=O)O)c1cc(F)cc2c(=O)n(C)c(C3C[C@@H]3C3CC3)cc12 (single isomer, unassigned) [Example 425] | – | – | 1 to 500 nM | > 15000 nM | 500 to 2000 nM | – | – | > 15000 nM
C[C@@H](Nc1cccc(F)c1C(=O)O)c1cc(F)cc2c(=O)n(C)c(C3C[C@@H]3C3CC3)cc12 (single isomer, unassigned) [Example 426] | – | > 15000 nM | – | – | 1 to 500 nM | 1 to 500 nM | > 15000 nM | –
C[C@@H](Nc1cccc(F)c1C(=O)O)c1cc(F)cc2c(=O)n(C)c(C3C[C@@H]3C(F)(F)F)cc12 (single isomer, unassigned) [Example 427] | 500 to 2000 nM | – | 1 to 500 nM | > 15000 nM | – | – | – | > 15000 nM
C[C@@H](Nc1cccc(F)c1C(=O)O)c1cc(F)cc2c(=O)n(C)c(C3C[C@@H]3C(F)(F)F)cc12 (single isomer, unassigned) [Example 428] | – | > 15000 nM | – | – | 500 to 2000 nM | 1 to 500 nM | > 15000 nM | –
C[C@@H](Nc1ccccc1C(=O)O)c1cc(F)cc2c(=O)n(C)c(C3C[C@@H]3C3CC3)cc12 (single isomer, unassigned) [Example 449] | 1 to 500 nM | – | 1 to 500 nM | > 15000 nM | – | – | – | > 15000 nM
C[C@@H](Nc1ccccc1C(=O)O)c1cc(F)cc2c(=O)n(C)c(C3C[C@@H]3C3CC3)cc12 (single isomer, unassigned) [Example 450] | – | > 15000 nM | – | – | 1 to 500 nM | 1 to 500 nM | > 15000 nM | –
C[C@@H](Nc1cccc(F)c1C(=O)O)c1cc(F)cc2c(=O)n(C)c(C3C[C@@H]3C(F)F)cc12 (single isomer, unassigned) [Example 475] | 500 to 2000 nM | – | 1 to 500 nM | > 15000 nM | – | – | – | > 15000 nM
C[C@@H](Nc1cccc(F)c1C(=O)O)c1cc(F)cc2c(=O)n(C)c(C3C[C@@H]3C(F)F)cc12 (single isomer, unassigned) [Example 476] | – | > 15000 nM | – | – | 500 to 2000 nM | 1 to 500 nM | > 15000 nM | –
C[C@@H](Nc1cccc(F)c1C(=O)O)c1cc(F)cc2c(=O)n(C)c(C3CC3(F)F)cc12 (single isomer, unassigned) [Example 479] | – | – | – | > 15000 nM | 2000 to 15000 nM | 2000 to 15000 nM | – | > 15000 nM
C[C@@H](Nc1cccc(F)c1C(=O)O)c1cc(F)cc2c(=O)n(C)c(C3CC3(F)F)cc12 (single isomer, unassigned) [Example 480] | – | > 15000 nM | – | – | 500 to 2000 nM | 1 to 500 nM | > 15000 nM | –
